The target of the experiment is T1, NAD(+) hydrolase SARM1 (Homo sapiens, UniProt Q6SZW1).
T1 sequence (Q6SZW1 whole entry): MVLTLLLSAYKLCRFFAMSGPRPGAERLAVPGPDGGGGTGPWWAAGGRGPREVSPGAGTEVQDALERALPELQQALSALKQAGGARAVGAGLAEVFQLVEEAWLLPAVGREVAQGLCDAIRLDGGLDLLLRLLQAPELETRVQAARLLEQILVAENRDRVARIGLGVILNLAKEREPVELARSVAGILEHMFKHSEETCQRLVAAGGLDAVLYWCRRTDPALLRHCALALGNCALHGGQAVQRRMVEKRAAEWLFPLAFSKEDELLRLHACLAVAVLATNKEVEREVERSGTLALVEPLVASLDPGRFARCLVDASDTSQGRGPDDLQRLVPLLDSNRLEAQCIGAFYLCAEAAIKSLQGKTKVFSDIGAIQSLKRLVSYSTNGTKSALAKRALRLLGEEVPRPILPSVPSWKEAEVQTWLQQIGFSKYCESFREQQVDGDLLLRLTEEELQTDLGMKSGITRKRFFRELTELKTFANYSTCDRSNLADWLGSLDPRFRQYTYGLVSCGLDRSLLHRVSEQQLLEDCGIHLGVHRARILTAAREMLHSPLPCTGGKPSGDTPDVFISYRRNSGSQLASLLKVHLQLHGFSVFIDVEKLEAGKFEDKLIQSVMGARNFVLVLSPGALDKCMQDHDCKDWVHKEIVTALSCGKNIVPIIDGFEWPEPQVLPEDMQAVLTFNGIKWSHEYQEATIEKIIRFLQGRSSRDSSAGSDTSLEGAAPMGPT
Description: ARM-SAM-TIR IC50 Assay. As for the experimental part:
The enzymatic assay was performed in a 384-well polypropylene plate in Dulbecco's PBS buffer in a final assay volume of 20 μL. ARM-SAM-TIR lysate with a final concentration of 5 μg/mL was pre-incubated with the respective compound at 1% DMSO final assay concentration over 2 h at room temperature. The reaction was initiated by addition of 5 μM final assay concentration of NAD+ as substrate. After a 2 hr room temperature incubation, the reaction was terminated with 40 μL of stop solution of 7.5% trichloroactetic acid in acetonitrile. The NAD+ and ADPR concentrations were analyzed by a RapidFire High Throughput Mass Spectrometry System (Agilent Technologies, Santa Clara, Calif.) using an API4000 triple quadrupole mass spectrometer (AB Sciex Framingham, Mass.).

We go through one compound from BindingDB's records for patent US12331033 (Disarm Therapeutics, 2025).

Molecules are shown by their SMILES. Where only a bound is given, the exact number is not on record here.

On to `Cc1c(-c2ccncc2)n[nH]c1NC(=O)COc1ccc(Cl)c(F)c1` [US12331033, Example 291], for which the IC50 (usually the concentration at which inhibition is half-maximal) is less than 5 µM.
